# Measured values: ChEMBL document CHEMBL1201862, “PubChem BioAssay data set” (2004)
#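 Results reflect a 48-hour exposure of cells in 96-well plates to compound at five concentrations. Here, GI50 denotes the concentration required for 50% inhibition of growth.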 Activity calls are given as the source filed them. No stated cut-off is given here; in the data, active = GI50 up to about 1.1 µM and inactive = higher.
# Key:
# Assay in all cases: NCI anticancer screen, dose series, 48 h
# RXF 393 = test system: RXF 393
# SW-620 = test system: SW-620
# KM12 = test system: KM12
# XF498 = test system: XF498
# SK-MEL-2 = test system: SK-MEL-2
# M14 = test system: M14
# RXF 631 = test system: RXF 631
# DLD-1 = test system: DLD-1
# MOLT-4 = test system: MOLT-4
# ACHN = test system: ACHN
# UO-31 = test system: UO-31
# A498 = test system: A498
# U-251 = test system: U-251
# OVCAR-3 = test system: OVCAR-3
# LOX IMVI = test system: LOX IMVI
# Malme-3M = test system: Malme-3M
# NCI-H23 = test system: NCI-H23
# TK-10 = test system: TK-10
# NCI-H522 = test system: NCI-H522
# OVCAR-5 = test system: OVCAR-5
# UACC-62 = test system: UACC-62
# SNB-78 = test system: SNB-78
# RPMI-8226 = test system: RPMI-8226
# HCT-15 = test system: HCT-15
# OVCAR-8 = test system: OVCAR-8
# HT-29 = test system: HT-29
# UACC-257 = test system: UACC-257
# CCRF-CEM = test system: CCRF-CEM
# SF-268 = test system: SF-268
# SNB-75 = test system: SNB-75
# LXFL 529 = test system: LXFL 529
# NCI-H460 = test system: NCI-H460
# DMS-114 = test system: DMS-114
# SK-OV-3 = test system: SK-OV-3
# K562 = test system: K562
# SR = test system: SR
# SK-MEL-5 = test system: SK-MEL-5
# HCT-116 = test system: HCT-116
# EKVX = test system: EKVX
# IGROV-1 = test system: IGROV-1
# HOP-18 = test system: HOP-18
# HL-60 = test system: HL-60
# 786-0 = test system: 786-0
# M19-MEL = test system: M19-MEL
# HOP-62 = test system: HOP-62
# A549 = test system: A549
# SF-295 = test system: SF-295
# COLO 205 = test system: COLO 205
# OVCAR-4 = test system: OVCAR-4
# HOP-92 = test system: HOP-92
# SN12C = test system: SN12C
# NCI-H226 = test system: NCI-H226
# SF-539 = test system: SF-539
# KM-20L2 = test system: KM-20L2
# SK-MEL-28 = test system: SK-MEL-28
# DMS-273 = test system: DMS-273
# CAKI-1 = test system: CAKI-1
# HCC 2998 = test system: HCC 2998
# SNB-19 = test system: SNB-19
compound,measurement,setting,value
c1ccc2c(CNCCCN3CCN(CCCNCc4cccc5ccccc45)CC3)cccc2c1,GI50,RXF 393,1.08 µM (active)
same,GI50,SW-620,1.77 µM (inactive)
same,GI50,KM12,1.96 µM (inactive)
same,GI50,XF498,1.77 µM (inactive)
same,GI50,SK-MEL-2,1.65 µM (inactive)
same,GI50,M14,1.18 µM (inactive)
same,GI50,RXF 631,1.13 µM (inactive)
same,GI50,DLD-1,1.75 µM (inactive)
same,GI50,MOLT-4,1.22 µM (inactive)
same,GI50,ACHN,2.75 µM (inactive)
same,GI50,UO-31,1.82 µM (inactive)
same,GI50,A498,10.9 µM (inactive)
same,GI50,U-251,1.73 µM (inactive)
same,GI50,OVCAR-3,2.89 µM (inactive)
same,GI50,LOX IMVI,1.35 µM (inactive)
same,GI50,Malme-3M,2.06 µM (inactive)
same,GI50,NCI-H23,11.4 µM (inactive)
same,GI50,TK-10,1.5 µM (inactive)
same,GI50,NCI-H522,1.59 µM (inactive)
same,GI50,OVCAR-5,2.15 µM (inactive)
same,GI50,UACC-62,1.79 µM (inactive)
same,GI50,SNB-78,2.21 µM (inactive)
same,GI50,RPMI-8226,1.03 µM (active)
same,GI50,HCT-15,1.8 µM
same,GI50,OVCAR-8,1.77 µM (inactive)
same,GI50,HT-29,1.65 µM (inactive)
same,GI50,UACC-257,1.92 µM (inactive)
same,GI50,CCRF-CEM,1.24 µM (inactive)
same,GI50,SF-268,2.37 µM (inactive)
same,GI50,SNB-75,1.74 µM (inactive)
same,GI50,LXFL 529,1.77 µM (inactive)
same,GI50,NCI-H460,1.41 µM (inactive)
same,GI50,DMS-114,2 µM (inactive)
same,GI50,SK-OV-3,2.39 µM (inactive)
same,GI50,K562,0.299 µM (active)
same,GI50,SR,0.655 µM (active)
same,GI50,SK-MEL-5,1.74 µM (inactive)
same,GI50,HCT-116,1.51 µM (inactive)
same,GI50,EKVX,3.6 µM (inactive)
same,GI50,IGROV-1,3.07 µM (inactive)
same,GI50,HOP-18,6.21 µM (inactive)
same,GI50,HL-60,1.44 µM (inactive)
same,GI50,786-0,1.91 µM (inactive)
same,GI50,M19-MEL,1.89 µM (inactive)
same,GI50,HOP-62,19.8 µM (inactive)
same,GI50,A549,2.01 µM (inactive)
same,GI50,SF-295,1.77 µM (inactive)
same,GI50,COLO 205,2.06 µM (inactive)
same,GI50,OVCAR-4,2.21 µM (inactive)
same,GI50,HOP-92,1.74 µM (inactive)
same,GI50,SN12C,3.68 µM (inactive)
same,GI50,NCI-H226,2.81 µM (inactive)
same,GI50,SF-539,1.61 µM (inactive)
same,GI50,KM-20L2,1.7 µM (inactive)
same,GI50,SK-MEL-28,1.69 µM (inactive)
same,GI50,DMS-273,1.97 µM (inactive)
same,GI50,CAKI-1,1.72 µM (inactive)
CCCCCCCCCCC(=O)CC(=O)c1c(O)cccc1O,GI50,RXF 393,26.3 µM (inactive)
same,GI50,SW-620,34.2 µM (inactive)
same,GI50,KM12,33 µM (inactive)
same,GI50,XF498,19.5 µM (inactive)
same,GI50,M14,40.2 µM (inactive)
same,GI50,RXF 631,47.3 µM (inactive)
same,GI50,DLD-1,44.6 µM (inactive)
same,GI50,MOLT-4,20.4 µM (inactive)
same,GI50,ACHN,30 µM (inactive)
same,GI50,UO-31,29 µM (inactive)
same,GI50,A498,30.9 µM (inactive)
same,GI50,U-251,21.5 µM (inactive)
same,GI50,OVCAR-3,24.2 µM (inactive)
same,GI50,LOX IMVI,18.7 µM (inactive)
same,GI50,Malme-3M,35.9 µM (inactive)
same,GI50,NCI-H23,26.9 µM (inactive)
same,GI50,TK-10,46.2 µM (inactive)
same,GI50,NCI-H522,28.1 µM (inactive)
same,GI50,OVCAR-5,19.7 µM (inactive)
same,GI50,UACC-62,41.9 µM (inactive)
same,GI50,SNB-78,33.5 µM (inactive)
same,GI50,RPMI-8226,21.1 µM (inactive)
same,GI50,HCT-15,47.4 µM
same,GI50,OVCAR-8,35.7 µM (inactive)
same,GI50,HT-29,30.7 µM (inactive)
same,GI50,UACC-257,31.2 µM (inactive)
same,GI50,SF-268,41.1 µM (inactive)
same,GI50,SNB-75,40.3 µM (inactive)
same,GI50,LXFL 529,36.3 µM (inactive)
same,GI50,NCI-H460,34.7 µM (inactive)
same,GI50,DMS-114,26.1 µM (inactive)
same,GI50,SK-OV-3,38.1 µM (inactive)
same,GI50,K562,24.9 µM (inactive)
same,GI50,SR,33.6 µM (inactive)
same,GI50,SK-MEL-5,28.4 µM (inactive)
same,GI50,HCT-116,19.5 µM (inactive)
same,GI50,EKVX,38.5 µM (inactive)
same,GI50,IGROV-1,46.8 µM (inactive)
same,GI50,HOP-18,18.9 µM (inactive)
same,GI50,HL-60,16.3 µM (inactive)
same,GI50,786-0,36.1 µM (inactive)
same,GI50,M19-MEL,25.8 µM (inactive)
same,GI50,HCC 2998,27.8 µM (inactive)
same,GI50,HOP-62,24.1 µM (inactive)
same,GI50,A549,32.4 µM (inactive)
same,GI50,SF-295,36.6 µM (inactive)
same,GI50,COLO 205,31 µM (inactive)
same,GI50,OVCAR-4,43.1 µM (inactive)
same,GI50,HOP-92,27.1 µM (inactive)
same,GI50,SN12C,29.3 µM (inactive)
same,GI50,NCI-H226,17.9 µM (inactive)
same,GI50,SF-539,36.4 µM (inactive)
same,GI50,KM-20L2,50.2 µM (inactive)
same,GI50,SK-MEL-28,53.7 µM (inactive)
same,GI50,DMS-273,23.8 µM (inactive)
same,GI50,CAKI-1,41 µM (inactive)
same,GI50,SNB-19,61.8 µM (inactive)
